The EC50 is the concentration at which the effect is half-maximal.

In the assay the target is T1, GPR103 W286^6.48A (Homo sapiens, UniProt Q96P65, W286A).
T1 construct: we used human full-length QRFPR-encoding plasmids; expressed in transfected cells; host or cells: HEK293 cells (HEK293A in the flow cytometry section), pCAGGS vector
T1 sequence (Q96P65 1-431 W286A): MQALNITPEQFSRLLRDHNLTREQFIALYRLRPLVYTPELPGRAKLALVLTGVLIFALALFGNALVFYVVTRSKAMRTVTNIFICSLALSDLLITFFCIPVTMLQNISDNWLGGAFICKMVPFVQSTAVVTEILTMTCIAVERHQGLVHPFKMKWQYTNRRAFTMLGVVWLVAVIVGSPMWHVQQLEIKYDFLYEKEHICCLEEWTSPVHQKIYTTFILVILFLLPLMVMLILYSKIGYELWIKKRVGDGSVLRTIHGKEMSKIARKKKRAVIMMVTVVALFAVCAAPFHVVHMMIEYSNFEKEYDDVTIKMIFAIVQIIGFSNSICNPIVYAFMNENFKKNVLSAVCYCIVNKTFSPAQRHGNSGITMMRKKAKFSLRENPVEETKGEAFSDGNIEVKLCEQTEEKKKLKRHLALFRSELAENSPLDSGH
Kind of assay: TGFα shedding assay; Exp. level WT (1:20). The assay is classed as cell-based. Here is the method: For the TGFα shedding assay and the flow cytometry analysis, we used human full-length QRFPR-encoding plasmids. Specifically, GPR103 was N-terminally modified with an HA signal sequence followed by a FLAG epitope and then a flexible linker ([…]; the FLAG epitope is underlined) and inserted into the pCAGGS vector. Plasmid encoding GPR103 mutants were generated using Quickchange Site-Directed Mutagensis kit (Agilent).
The TGFα shedding assay was performed as described previously with minor modifications. Plasmid transfection was performed in a 6-well plate with a mixture of 500 ng (per well in a 6-well plate) AP-TGFα-encoding plasmid and 200 ng GPR103-encoding plasmid. After 1-day culture, the transfected cells were harvested by trypsinization, pelleted by centrifugation at 190 × g for 5 min, and washed once with 5 mM HEPES (pH 7.4)-containing Hank’s Balanced Salt Solution (HBSS). After centrifugation, the cells were resuspended in 8 mL of the HEPES-containing HBSS. The cell suspension was seeded in a 96-well culture plate (cell plate) at a volume of 90 μL (per well hereafter) and incubated in a 37 °C incubator with 5% CO2 for 30 min. […] After spinning the cell plates at 190 × g for 2 min, 80 μL of conditioned media was transferred to an empty 96-well plate (conditioned media (CM) plate). Then, 80 μL of AP reaction solution (10 mM p-nitrophenylphosphate (p-NPP), 120 mM Tris-HCl (pH 9.5), 40 mM NaCl, and 10 mM MgCl2) was dispensed into the cell plates and the CM plates. Absorbance at 405 nm of the plates was measured using a microplate reader (SpectraMax 340 PC384, Molecular Devices) before and after 1-h incubation at room temperature. Ligand-induced AP-TGFα release was calculated by subtracting spontaneous AP-TGFα release signal from ligand-induced AP-TGFα release signal. The AP-TGFα release signals were fitted to a four-parameter sigmoidal concentration–response curve, using the Prism 10 software (GraphPad Prism). For each replicate experiment, the pEC50 parameter (negative logarithmic values of EC50 values) of the individual GPR103 mutants were normalized to that of the wild-type GPR103 performed in parallel, and resulting ∆pEC50 values were used to denote ligand response activity of the mutants. […]
Exp. le vel: WT (1:5 0)Exp. le vel: WT (1:5 0)Exp. le vel: WT (1:5 0)Exp. le vel: WT (1:2 0)Exp. le vel: WT (1:2 0)Exp. le vel: WT (1:1 0) […]
L1 4N - t e r mA F2 5N - t e r mA I 2 6N - t e r mA Y 2 9N - t e r mA C 9 82 .5 7A T10 22 .6 1A Exp . l eve l: WT (1 :5)Exp . l evel : >WT (1 :1)Exp. le vel: WT (1:2 0)Exp. le vel: WT (1:2 0)Exp. le vel: WT (1:5 0)Exp . l eve l: WT (1 :1) […]
Exp. le vel: WT (1:1 0)Exp. le vel: WT (1:2 0) C 1 1 83 .2 5AExp. le vel: WT (1:5 0)Exp. le vel: WT (1:5 0)Exp. le vel: WT (1:2 0)Exp . l eve l: WT (1 :5) […]
Exp. le vel: WT (1:5 0)Exp. le vel: WT (1:1 0)Exp. le vel: WT (1:5 0) E203ECL2AExp . l evel : >WT (1 :1)Exp. le vel: WT (1:5 0)Exp. le vel: WT (1:5 0) […]
Exp . l eve l: WT (1 :1) F28Exp. le vel: WT (1:5 0) C 2 8 56 .4 7AExp. le vel: WT (1:2 0) WExp. le vel: WT (1:2 0) F28Exp. le vel: WT (1:5 0)Exp . l evel : >WT (1 :1) […]
Exp. le vel: WT (1:5 0)Exp. le vel: WT (1:5 0) C 3 2 77 .4 8AExp . l eve l: WT (1 :5)Exp . l evel : >WT (1 :1)Exp . l evel : >WT (1 :1) […]
Suppl eme nt ary Figure 1 | Mutational analysis of GPR103. […]
mutants. Data are presented as mean values ± SEM, normally n=3-5; dots), each performed in triplicate. b-d Cell-surface expression (b) and QRFP26-in-duced activation of GPR103 (c, d) were analyzed by the flow cytometry and the TGFα shedding assay, respectively. From the concentration–response curves (a), Emax (c) and ΔpEC50 (d) values relative to the wild type were calculated. Colors in the mutant bars indicate an expression level matching to that of titrated wild type. Statistical analyses were performed using the ordinary one-way ANOVA followed by Dunnett tests with the expression-matched […]

Read-outs that look alike come from different tables or passages of the source. No end group written: not given here.

Turning to TSGPLGNLAEELNGYSRKKGGFSFRF-NH2 [QRFP26], the Emax (Exp. #1) stood at 72.87 % WT; the Emax (Exp. #2) worked out at 70.40 % WT; the Emax (Exp. #3) amounted to 78.23 % WT; the Emax (mean, read-out: Emax) worked out at 73.8%; the Emax (n = 3, read-out: Emax) was 75.7 ± 1.9%. Under “n = 3”, this substance had a concentration giving a half-maximal response (EC50) of 1120 nM.

Values taken from PMC11187126, “Structure and dynamics of the pyroglutamylated RF-amide peptide QRFP receptor GPR103” (Nature Communications, 2024).
